This is an account of results in patent US20240118281A1, “ANTICANCER COMPOUNDS AND USES THEREOF” (University of Florida Research Foundation, Incorporated, priority 2021, published 2024).

Structures are written as SMILES.

In test [1] the test system is DR5. As to the kind of experiment: Disulfide bond-mediated oligomerization and levels, non-reducing immunoblot. In kind it is cell-based. The source says: The BT20, BT474, BT549, MCF7, MDA-MB-231, MDA-MB-436, MDA-MB-468, HCC1143, HCC1500, HCC1569, HCC1937, HCC1954, Hs578t, and T47D cells lines were purchased from American Type Culture Collection (ATCC) (Manassas, VA). The HCI-001 cell line was derived from an ER-/PR-/HER2- patient-derived xenograft originally isolated from a patient as described previously (DeRose Y S, et al. Nat Med 2011; 17: 1514-1520). The HCI-001/LVM2 model was derived from the HCI-001 cell line by performing two rounds of selection for liver metastasis, as described previously (Wang M, et al. Cell Death Discovery 2019; 5: 153). Cell lines were grown in Dulbecco's Modified Eagle's Medium (GE Healthcare Life Sciences, Logan, UT) containing 10% fetal bovine serum (10% FBS—DMEM) in a humidified incubator with 5% CO2 at 37° C. Cell lysates were prepared as described previously (Law B K, et al. Mol Cell Biol. 2002; 22: 8184-8198). Immunoblot analysis was performed utilizing the following antibodies purchased from Cell Signaling Technology (Beverly, MA) [Akt, #4691; P-Akt[T308], #13038; ATF4, #11815; CHOP, #2895; Cleaved Caspase 8, #9496; DR4, #42533; DR5, #8074; EGFR, #4267; GRP78, #3177; HER3, #4754; PARP, #9532; PDIA1, #3501; XBP1s, #12782], from Santa Cruz Biotechnology (Santa Cruz, CA) [Actin, sc-47778; AGR2/3, sc-376653; AGR3, sc-390940; ERO1-a, sc-100805; and ERp44, sc-393687], or from Rockland Immunochemicals, Inc. (Limerick, PA), Streptavidin-Alkaline Phosphatase conjugated (SA-AP), S000-05.
(§1) To assess protein disulfide bond-mediated oligomerization, cells were treated with DDAs for 24 h in 10% FBS-DMEM. Cells were subsequently scraped directly into the media and pelleted by centrifugation. Cells were extracted directly into boiling 2×-SDS-Sample Buffer containing 100 mM NEM and boiled for 10 min. Samples were sonicated, followed by centrifugation for 20 min at room temperature. Samples were subsequently analyzed by SDS-PAGE and immunoblot.

In test [2] the target is T1, AGR2 (Homo sapiens, UniProt O95994).
T1 sequence (O95994 21-175): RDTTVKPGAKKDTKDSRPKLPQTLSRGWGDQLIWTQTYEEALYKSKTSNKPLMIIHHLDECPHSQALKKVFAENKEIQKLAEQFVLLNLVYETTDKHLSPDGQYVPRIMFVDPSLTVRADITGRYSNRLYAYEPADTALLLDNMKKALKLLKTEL
In words: AGR2 dimer formation in stable cell lines, non-reducing immunoblot. It counts as cell-based. Further details: expressed in transfected cells. To be noted: MDA-MB-468 stable cell lines, 5 μM, 24 h, FIG. 2F. The procedure:
as §1

Where [3] appears, read: MDA-MB-468 cells, 24 h, compared with tcyDTDO, FIG. 1E left.

Turning to `CO[C@H]1C[C@@H]2CS(=O)(=O)SC[C@H]2C[C@@H]1OC` [dMtcyDTDO, dimethoxy-tcyDTDO], the “Levels and oligomerization of DR5, densitometry” value in test [1] (0, 1.25, 2.5, 5 uM, FIG. 1F) was “increases the levels of both oligomeric and monomeric forms of DR5”. Also, the “Concentration at which oligomerization of DR5 was observed” value in test [1] (MDA-MB-468 cells, 24 h, FIG. 1E right) was 1.25 µM. In test [1] (setting [3]), the “DR4/5 oligomerization at the same concentration (DR5)” value is listed as “more DR4/5 oligomerization” and the “DR5 levels at the same concentration” value was “higher DR5 levels”. Also, the “AGR2 dimer formation in cells with enforced AGR2 expression” value in test [2] was “blocked dimer formation by wild type AGR2”.
